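Growth conditions: 96-well plates. Treatment: test compound, 48 hours, 5 concentrations. Analysis: linear interpolation between bracketing concentrations; unreached endpoints set to highest concentration. TGI: concentration producing complete growth inhibition.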
Columns and labels:
Assay in all cases: DTP human tumour cell line panel, 48 h
ACHN renal = system: ACHN renal
SK-MEL-2 melanoma = system: SK-MEL-2 melanoma
HS 578T breast = system: HS 578T breast
K-562 leukemia = system: K-562 leukemia
SF-268 CNS = system: SF-268 CNS
NCI-H23 lung = system: NCI-H23 lung
U251 CNS = system: U251 CNS
NCI-H460 lung = system: NCI-H460 lung
RPMI-8226 leukemia = system: RPMI-8226 leukemia
SNB-19 CNS = system: SNB-19 CNS
SF-295 CNS = system: SF-295 CNS
SK-MEL-5 melanoma = system: SK-MEL-5 melanoma
LOX IMVI melanoma = system: LOX IMVI melanoma
HT29 colon = system: HT29 colon
UACC-257 melanoma = system: UACC-257 melanoma
NCI-H522 lung = system: NCI-H522 lung
M14 melanoma = system: M14 melanoma
MOLT-4 leukemia = system: MOLT-4 leukemia
OVCAR-3 ovarian = system: OVCAR-3 ovarian
OVCAR-5 ovarian = system: OVCAR-5 ovarian
UACC-62 melanoma = system: UACC-62 melanoma
BT-549 breast = system: BT-549 breast
DU-145 prostate = system: DU-145 prostate
A498 renal = system: A498 renal
TK-10 renal = system: TK-10 renal
HCC-2998 colon = system: HCC-2998 colon
SW-620 colon = system: SW-620 colon
MDA-N = system: MDA-N
SNB-75 CNS = system: SNB-75 CNS
A549 NSCLC = system: A549 NSCLC
T-47D breast = system: T-47D breast
UO-31 renal = system: UO-31 renal
KM12 colon = system: KM12 colon
CAKI-1 renal = system: CAKI-1 renal
MCF7 breast = system: MCF7 breast
CCRF-CEM leukemia = system: CCRF-CEM leukemia
EKVX NSCLC = system: EKVX NSCLC
HCT-15 colon = system: HCT-15 colon
MALME-3M melanoma = system: MALME-3M melanoma
SR leukemia = system: SR leukemia
COLO 205 colon = system: COLO 205 colon
RXF 393 renal = system: RXF 393 renal
OVCAR-4 ovarian = system: OVCAR-4 ovarian
SK-MEL-28 melanoma = system: SK-MEL-28 melanoma
NCI/ADR-RES ovarian = system: NCI/ADR-RES ovarian
HOP-62 NSCLC = system: HOP-62 NSCLC
NCI-H226 lung = system: NCI-H226 lung
SK-OV-3 ovarian = system: SK-OV-3 ovarian
HCT-116 colon = system: HCT-116 colon
MDA-MB-231 breast = system: MDA-MB-231 breast
PC-3 prostate = system: PC-3 prostate
786-0 renal = system: 786-0 renal
OVCAR-8 ovarian = system: OVCAR-8 ovarian
HL-60(TB) leukemia = system: HL-60(TB) leukemia
IGROV1 ovarian = system: IGROV1 ovarian
SN12C renal = system: SN12C renal
HOP-92 NSCLC = system: HOP-92 NSCLC
SF-539 CNS = system: SF-539 CNS
MDA-MB-435 = system: MDA-MB-435

O=c1c2c3c(sc2nc(CN2CCNCC2)n1-c1ccccc1)CCCC3
TGI (ACHN renal): > 100 µM | TGI (SK-MEL-2 melanoma): > 100 µM | TGI (HS 578T breast): > 100 µM | TGI (K-562 leukemia): > 100 µM | TGI (SF-268 CNS): > 100 µM | TGI (NCI-H23 lung): > 100 µM | TGI (U251 CNS): > 100 µM | TGI (NCI-H460 lung): > 100 µM | TGI (RPMI-8226 leukemia): > 100 µM | TGI (SNB-19 CNS): > 100 µM | TGI (SF-295 CNS): > 100 µM | TGI (SK-MEL-5 melanoma): > 100 µM | TGI (LOX IMVI melanoma): > 100 µM | TGI (HT29 colon): > 100 µM | TGI (UACC-257 melanoma): > 100 µM | TGI (NCI-H522 lung): > 100 µM | TGI (M14 melanoma): > 100 µM | TGI (MOLT-4 leukemia): > 100 µM | TGI (OVCAR-3 ovarian): > 100 µM | TGI (OVCAR-5 ovarian): > 100 µM | TGI (UACC-62 melanoma): > 100 µM | TGI (BT-549 breast): > 100 µM | TGI (DU-145 prostate): > 100 µM | TGI (A498 renal): > 100 µM | TGI (TK-10 renal): > 100 µM | TGI (HCC-2998 colon): > 100 µM | TGI (SW-620 colon): > 100 µM | TGI (MDA-N): > 100 µM | TGI (SNB-75 CNS): > 100 µM | TGI (A549 NSCLC): > 100 µM | TGI (T-47D breast): > 100 µM | TGI (UO-31 renal): > 100 µM | TGI (KM12 colon): > 100 µM | TGI (CAKI-1 renal): > 100 µM | TGI (MCF7 breast): > 100 µM | TGI (CCRF-CEM leukemia): > 100 µM | TGI (EKVX NSCLC): > 100 µM | TGI (HCT-15 colon): > 100 µM | TGI (MALME-3M melanoma): > 100 µM | TGI (SR leukemia): > 100 µM | TGI (COLO 205 colon): > 100 µM | TGI (RXF 393 renal): > 100 µM | TGI (OVCAR-4 ovarian): 82.9 µM | TGI (SK-MEL-28 melanoma): > 100 µM | TGI (NCI/ADR-RES ovarian): > 100 µM | TGI (HOP-62 NSCLC): > 100 µM | TGI (NCI-H226 lung): > 100 µM | TGI (SK-OV-3 ovarian): > 100 µM | TGI (HCT-116 colon): > 100 µM | TGI (MDA-MB-231 breast): > 100 µM | TGI (PC-3 prostate): > 100 µM | TGI (786-0 renal): > 100 µM | TGI (OVCAR-8 ovarian): > 100 µM | TGI (HL-60(TB) leukemia): > 100 µM | TGI (IGROV1 ovarian): > 100 µM | TGI (SN12C renal): > 100 µM | TGI (HOP-92 NSCLC): > 100 µM

O=C(Nc1ccccc1Cl)c1cc(S(=O)(=O)Nc2n[nH]c(=O)n2-c2ccccc2)c(S)cc1Cl
TGI (SK-MEL-2 melanoma): > 100 µM | TGI (HS 578T breast): > 100 µM | TGI (SF-268 CNS): > 100 µM | TGI (NCI-H23 lung): > 100 µM | TGI (U251 CNS): > 100 µM | TGI (NCI-H460 lung): > 100 µM | TGI (RPMI-8226 leukemia): > 100 µM | TGI (SNB-19 CNS): > 100 µM | TGI (SF-295 CNS): > 100 µM | TGI (SK-MEL-5 melanoma): > 100 µM | TGI (LOX IMVI melanoma): > 100 µM | TGI (SF-539 CNS): > 100 µM | TGI (HT29 colon): > 100 µM | TGI (UACC-257 melanoma): > 100 µM | TGI (M14 melanoma): > 100 µM | TGI (MOLT-4 leukemia): > 100 µM | TGI (OVCAR-3 ovarian): > 100 µM | TGI (OVCAR-5 ovarian): > 100 µM | TGI (UACC-62 melanoma): > 100 µM | TGI (BT-549 breast): > 100 µM | TGI (DU-145 prostate): > 100 µM | TGI (A498 renal): > 100 µM | TGI (HCC-2998 colon): > 100 µM | TGI (SW-620 colon): > 100 µM | TGI (MDA-N): > 100 µM | TGI (T-47D breast): > 100 µM | TGI (UO-31 renal): > 100 µM | TGI (KM12 colon): > 100 µM | TGI (CAKI-1 renal): > 100 µM | TGI (MCF7 breast): > 100 µM | TGI (CCRF-CEM leukemia): > 100 µM | TGI (EKVX NSCLC): > 100 µM | TGI (HCT-15 colon): > 100 µM | TGI (MALME-3M melanoma): > 100 µM | TGI (SR leukemia): > 100 µM | TGI (COLO 205 colon): > 100 µM | TGI (RXF 393 renal): > 100 µM | TGI (OVCAR-4 ovarian): > 100 µM | TGI (SK-MEL-28 melanoma): > 100 µM | TGI (NCI/ADR-RES ovarian): > 100 µM | TGI (HOP-62 NSCLC): > 100 µM | TGI (NCI-H226 lung): > 100 µM | TGI (SK-OV-3 ovarian): > 100 µM | TGI (MDA-MB-231 breast): > 100 µM | TGI (786-0 renal): > 100 µM | TGI (OVCAR-8 ovarian): > 100 µM | TGI (HL-60(TB) leukemia): > 100 µM | TGI (IGROV1 ovarian): > 100 µM | TGI (MDA-MB-435): > 100 µM | TGI (SN12C renal): > 100 µM | TGI (HOP-92 NSCLC): > 100 µM

CCOC(=O)c1nc2ccccc2nc1Nc1ccc(Cl)c(Cl)c1
TGI (ACHN renal): > 100 µM | TGI (SK-MEL-2 melanoma): > 100 µM | TGI (HS 578T breast): > 100 µM | TGI (K-562 leukemia): > 100 µM | TGI (SF-268 CNS): > 100 µM | TGI (NCI-H23 lung): > 100 µM | TGI (U251 CNS): > 100 µM | TGI (NCI-H460 lung): > 100 µM | TGI (RPMI-8226 leukemia): > 100 µM | TGI (SNB-19 CNS): > 100 µM | TGI (SK-MEL-5 melanoma): 65.5 µM | TGI (SF-539 CNS): > 100 µM | TGI (HT29 colon): > 100 µM | TGI (NCI-H522 lung): > 100 µM | TGI (M14 melanoma): > 100 µM | TGI (MOLT-4 leukemia): > 100 µM | TGI (OVCAR-3 ovarian): > 100 µM | TGI (OVCAR-5 ovarian): > 100 µM | TGI (UACC-62 melanoma): 83.2 µM | TGI (BT-549 breast): 49.5 µM | TGI (DU-145 prostate): > 100 µM | TGI (TK-10 renal): > 100 µM | TGI (HCC-2998 colon): > 100 µM | TGI (MDA-N): > 100 µM | TGI (SNB-75 CNS): 68.4 µM | TGI (A549 NSCLC): > 100 µM | TGI (T-47D breast): > 100 µM | TGI (UO-31 renal): > 100 µM | TGI (KM12 colon): > 100 µM | TGI (CAKI-1 renal): 70.9 µM | TGI (MCF7 breast): > 100 µM | TGI (EKVX NSCLC): > 100 µM | TGI (HCT-15 colon): > 100 µM | TGI (MALME-3M melanoma): 93.9 µM | TGI (SR leukemia): > 100 µM | TGI (COLO 205 colon): > 100 µM | TGI (OVCAR-4 ovarian): > 100 µM | TGI (SK-MEL-28 melanoma): > 100 µM | TGI (NCI/ADR-RES ovarian): > 100 µM | TGI (HOP-62 NSCLC): 63 µM | TGI (SK-OV-3 ovarian): 47.1 µM | TGI (HCT-116 colon): > 100 µM | TGI (MDA-MB-231 breast): > 100 µM | TGI (786-0 renal): > 100 µM | TGI (OVCAR-8 ovarian): > 100 µM | TGI (HL-60(TB) leukemia): > 100 µM | TGI (IGROV1 ovarian): > 100 µM | TGI (MDA-MB-435): > 100 µM | TGI (SN12C renal): > 100 µM | TGI (HOP-92 NSCLC): 44.5 µM
